Here are results for three compounds from US5756505A, “N-acylpiperazine derivative, antibacterial drug and anti-ulcer drug” (Shiseido Co., Ltd., priority 1995, dated 1998).

Data set [1] relates to isolated gastric fundic gland. Kind of data set: CAP: Acid Secretion Inhibition Test In Vitro ([14C]-aminopyrine uptake). Format: cell-based, rabbit (male Japanese White). The following applies: Oryctolagus cuniculus, final concentration 10^-5 M, histamine 10^-5 M, rabbit gastric fundic gland; read-out: CAP: acid secretion inhibitory rate. Here is the method:
CAP: Acid Secretion Inhibition Test In Vitro
The acid secretion inhibitory activity in a cell level is studied. It can also be used for studying the mechanism of the effect. […]
ii-a) Preparation of isolated gastric fundus gland suspension
First, an isolated gastric fundic gland sample was prepared. Namely, a male Japanese White rabbit (2.5 to 3 kg) was anesthetized to death with Nembutal™ and then the abdomen was incised. Immediately thereafter, the stomach was removed and, after its pyloric and cardiac antrum were severed, incised along its greater curvature into two sheets. The gastric contents adhering to the mucosal surface was washed out with ice-cooled PBS (-) and then carefully washed therein. The gastric wall was spread on a cork board with its mucosal surface facing up and the feed and mucus thereon were completely removed with sterile gauze. The mucosa was separated therefrom by a spatula and then collected in ice-cooled PBS (-). After being washed twice with PBS (-), the mucosa was minced into 2-3mm^3 pieces by scissors. These pieces were further washed twice with a nutrient solution. The nutrient solution comprises 132.4 mM of NaCl, 5.4 mM of KCl, 5 mM of Na2 HPO4 ·12H2 O, 1 mM of NaH2 PO4 ·2H2 O, 1.2 mM of MgSO4, 1 mM of CaCl2, 25 mM of HEPES, 2mg/ml of glucose, and 1 mg/ml of BSA. Into 70 ml of the nutrient solution containing 1 mg/ml of collagenase, minced mucosal pieces were dispersed and intensely stirred in a conical flask with a stirrer at 37° C. for 40 to 60 minutes. During this period, 100% O2 was sprayed on the nutrient solution surface and the pH was appropriately measured such that it was immediately adjusted to pH 7.4, when the value was therebelow, with a base. The nutrient solution was added to the reaction solution so as to attain the total amount of about 200 ml. After being filtered through a mesh, the suspension was divisionally introduced into 50 ml centrifuge tubes and left for 15 minutes such that gastric fundic gland was deposited. The supernatant was repeatedly removed by an aspirator, dispersed in the nutrient solution, and then left such that the gastric fundic gland was washed three times. At this time, without using a pipette, the suspension was alternately introduced into two centrifuge tubes so as to effect dispersion. The number of cells was counted under microscope and adjusted to 1.6×10^6 cells/ml. […]
ii-b) [^14 C]-aminopyrine uptake test
Then, [^14 C]-aminopyrine uptake test was performed. After an Eppendorf tube was weighed, 10 μl (final concentration: 10^-5 M) of histamine dissolved in the above-mentioned nutrient solution, 10 μl (final concentration: 10^-5 M) of the test compound dissolved in DMSO, and 10 μl (final concentration: 0.05 μCi/ml) of [^14 C]-aminopyrine diluted with the nutrient solution were introduced therein and then 970 μl of the isolated gastric fundic gland suspension prepared above were added thereto. Subsequently, this mixture was shaken at 37° C. for 40 minutes at 125 cycles/minute. After being centrifuged for 30 minutes 200 μl of its supernatant was collected into a mini-vial, while the rest was removed by an aspirator. The gland pellet was completely dried as the tube with its lid being opened was kept for one night in a drying oven at 80° C. and then the lid was closed and the weight was determined at room temperature. Then 100 μl of 1N KOH were added thereto and the tube with its lid being closed was treated at 60° C. for 1 to 2 hours so as to dissolve the pellet. Then, the contents thereof were transferred to a mini-vial. Into the mini-vial containing the supernatant or gland pellet, 4 ml of Atomlite™ were added and then the radioactivity was measured by a liquid scintillation counter. Here, after the radioactivity of the gland pellet was corrected by using a sample in which 20 mM of NaSCN were added so as to cancel the hydrogen ion concentration gradient, the integration ratio of aminopyrine specifically trapped by the gland pellet was calculated. […]

Data set [2] in a line: MTT: Cell Damaging and Protecting Effect Test. The following applies: rabbit, gastric mucosal cells, final concentration 10^-4 M, 4 hours; smaller value is better; read-out: MTT: cell damaging rate. Format: cell-based, rabbit (male Japanese White). From the text: MTT: Cell Damaging and Protecting Effect Test
It is confirmed that there is no toxicity in cell level. Those having a toxicity in cell level are inappropriate as an anti-ulcer drug.
A male Japanese White rabbit (2.5 to 3 kg) was anesthetized to death by Nembutal™ and, immediately thereafter, its stomach was removed. The greater curvature of the stomach was incised so as to remove the stomach contents therefrom. After the mucosal surface was washed with HBSS (Hanks' Balanced Salt Solution), the stomach in ice-cooled HBSS was transferred to a laboratory. Then, after the pyloric antrum was removed, the gastric corpus mucosa was separated by a spatula and then minced into 2 to 3 mm^3 pieces in BME (Basal Medium Eagle). Thereafter, these pieces were shaken at 120 to 130 cycles/minute for 15 minutes at 37° C. in BME 60ml containig 280 U/ml of dispase and 30 to 50 U/ml of collagenase. Here, the concentration of collagenase was appropriately changed for each lot in view of the state of cells. The pieces were washed twice with EBSS (Earle's Balanced Salt Solution) containing 1 mM of EDTA and then shaken in MEM (Minimum Essential Medium) containing 1 mM of EDTA at 37° C. for 5 minutes. Subsequently, they were shaken in the dispase and collagenase having the same concentrations as those mentioned above for 15 minutes so as to remove the supernatant and then further shaken at 37° C. for 50 to 60 minutes at 120 to 130 cycles/minute. Then, after being washed twice with HBSS, Ham F12 containing 2% of Ultrocer G™ was used to attain the concentration of 1×10^6 cells/ml. Thus formed suspension was dispensed in each well of a 96-well plate by 200 μl. The plate was incubated in the atmosphere composed of 5% CO2 and 95% air at 37° C. for three days so as to attain a confluent state and then subjected to MTT assay.
The sample compound was dissolved in DMSO so as to attain a concentration of 10^-2 M and then diluted with HBSS containing 2% of Ultrocer G™ so as to attain a final concentration of 10^-4 M. To each group, which 8 wells were used for, 10 μl of MTT reagent were added immediately after 100 μl of the medium in each well were exchanged for same volume of the resulting solution of the sample compound. After being incubated in an atmosphere composed of 5% CO2 and 95% air at 37° C. for 4 hours, thus formed solution was centrifuged and then its supernatant was discarded. Subsequently, 100 μl of 100% ethanol were added to the residue so as to dissolve MTT formazan. Then, the absorbance (OD: 570 to 630) was measured by a microplate reader. This method utilizes a phenomenon in which MTT is changed to MTT formazan only by mitochondria of living cells so as to change color.
The cell damaging or cell protecting effect of the sample compound at the final concentration of 10^-4 M was expressed as cell damaging rate (%) as follows:
cell damaging rate (%)=[1-(absorbance in sample group/absorbance in control group)]×100
Accordingly, the smaller value is better in the cell damaging rate.

On to `CC(C)Cc1cc(C(=O)N2CCN(CC(C)C)CC2)ccc1OCc1ccc(Cl)cc1` [Example 17, 1-[4-(4-chlorobenzyloxy)-3-isobutylbenzoyl]-4-isobutylpiperazine], for which the inhibition at 10 µM in data set [1] is 99%. The cytotoxicity at 4 h, 100 µM in data set [2] is -18%.
Regarding `CC(C)Cc1cc(CN2CCN(CC(C)C)CC2)ccc1OCc1ccc(F)cc1.Cl.Cl` [Example 20, 1-[4-(4-fluorobenzyloxy)-3-isobutylbenzyl]-4-isobutylpiperazine dihydrochloride], in data set [1], the inhibition at 10 µM came to 100%. The cytotoxicity at 4 h, 100 µM in data set [2] turned out to be 45%.
For `CC(C)Cc1cc(C(=O)N2CCN(CC(C)C)CC2)ccc1OCc1ccc(F)c(F)c1.Cl` [Example 23, 1-[4-(3,4-difluorobenzyloxy)-3-isobutylbenzoyl]-4-isobutylpiperazine hydrochloride] the same measures were 99% and 28%.
